Columns and labels:
[1] = molecular target: T1, Cdk2(ES) = Cdk2(F80C,C177A) (Homo sapiens, UniProt P24941, C177A/F80C); experiment: quantitative irreversible tethering (qIT): rate of cysteine modification of Cdk2(ES); format: binding; conditions: for kinact/KI at 500 µM: Cdk2(ES) 5 μM, read-out: Cdk2(ES): kobs/[I]; for covalent SAR by REF-based qIT analysis: compared with acrylamide 1 or parent analogue
T1 construct: GST (N, cleaved yes); made in house; host or cells: E. coli Tuner(DE3)
Protocol: (§1) Figure 2 Comparison of previous and current applications of Quantitative irreversible tethering (qIT). a) Overview of rate determination. A cysteine‐containing biomolecule is treated with covalent fragments under pseudo‐first‐order conditions. Reaction progress is followed by discrete measurement of free cysteine concentration by using the fluorogenic probe CPM, and rate constants (k obs) are derived from exponential regression analysis. b) Comparison of the reactivity profile of each fragment with the POI and GSH typically classes them as unreactive, reactive but non‐selective or reactive and selective. c) Quantification of kinetic POI/GSH selectivity facilitates hit identification. d) The observed rate of reaction between the POI and hit fragment is determined at a range of ligand concentrations by using qIT. Subsequent hyperbolic regression analysis is used to derive K i and k inact to facilitate comprehensive covSAR analysis.
Therefore, we set out to develop novel classes of electrophile sensitive kinase inhibitors using a covalent fragment approach. Accordingly, we screened a 138‐member library of diverse cysteine‐reactive fragments at 500 μM against Cdk2(ES) and GSH by using the qIT platform and monitored the kinetics of cysteine‐modification over 24 hours. […] Using three standard deviations over the geometric mean REF as the statistical cut‐off for defining hit fragments (REF >27.9) yielded two acrylamide fragments, tetrahydroquinoline 1 (REF=81) and pyrimidine S1 (REF=64) for further investigation (Figures 3c and S2). […]
D. Rate determination by qIT
Reaction-plate setup: Each well of a 96-well PCR plate was charged with 60–100 µL of target thiol (GSH or protein, 10 µM) and 4% w/v TCEP-agarose beads in 100 mM phosphate buffer (pH 7.5 or 8) and cooled to 4 °C. Reactions were started by addition of an equal volume of pre-cooled electrophile solution (1 mM, 2% DMSO) in 0.1 M phosphate buffer (final concentra-tion: thiol = 5 µM, electrophile = 0.5 mM, 2% w/v TCEP-agarose beads), with a minimum of 4 wells per plate used as DMSO/thiol only controls. After mixing, TCEP-agarose was pelleted by centrifugation (1,300 rpm, 1 min) and the plate incu-bated at 4 °C. CPM Quench: At a series of time points (typically around 0.25, 0.5, 1, 2, 6, 24, 48, 72 and 120 hours after reac-tion initiation), 3 µL aliquots of each reaction were quenched into a 384-well fluorescence plate (Corning – black, NBS) where each well was charged with 27 µL of CPM solution (1.39 µM) in 100 mM phosphate buffer (pH 7.5) (final concentration: thiol = 0.5 µM, CPM = 1.25 µM). Quenching was typically performed in duplicate and fluorescence plates were incubated at room temperature for 60 minutes before fluorescence intensity (excitation/emission: 384/470 nm) was measured on an EnVisionTM plate reader. Analysis: All analysis was performed using Prism 8.0 software (GraphPad). For each time point, the fluorescence of each reaction was normalized relative Cdk2(ES)/GSH only control = maximum signal, DMSO only = minimum signal. The normalized fluorescence for each reaction was plotted against time. A one phase exponential decay was fitted to each plot (Constraints: Y(0) > 0.8; 0 < plateau = 0), yielding a pseudo first-order rate constant.
Cdk2 mutations were introduced by PCR and cloned into pGEX6P1 Cdk2 (552), a gift from Jonathon Pines (Addgene plasmid # 61845) used to express GST-Cdk2(WT). GST-Cdk2(ES) = GST-Cdk2(F80C,C177A). All constructs were verified by se-quencing. pGEX6P1 cyclin A2 (amino acids 173-432) was generated by PCR and restriction digestion. GST-CAK1 was con-structed by PCR amplification of S.cerevisiae genomic DNA and the product cloned into pKEG-KG. All protein expression was performed using an adapted autoinduction protocol:[8] Plasmids were transformed into E. coli Tuner(DE3) and cultures grown in autoinduction media at 37 °C until OD600 = 0.9. The cultures were then incubated at 18 °C for a further 40 hours before […]

Cdk2(ES) = molecular target: T2, Cdk2(ES) (Homo sapiens, UniProt P24941, C177A/F80C); experiment: concentration-dependent qIT with hyperbolic regression (Ki, kinact); format: binding; conditions: for kinact/KI / Ki / kinact: acrylamide 25-500 μM, Cdk2(ES) 5 μM; for Ki / kinact: hyperbolic fit of kobs
T2 construct: GST (N, cleaved yes); made in house; host or cells: E. coli Tuner(DE3)
Protocol: Next we sought to carry out comprehensive kinetic analysis of the covalent binding to better understand the covSAR trends. Accordingly, the concentration dependency for the rate of reaction between Cdk2(ES) and key acrylamides 1, 6, 9 and 11 were determined using qIT (Figure 7c). To maintain pseudo‐first‐order reaction kinetics and stay within the solubility limits of the fragments, ligands were titrated from 25 to 500 μM. […] Indeed, comparing the binding conformations of the merged (9 and 11) and parent (1 and 6) fragments, we observe a subtle shift in the position of the core scaffolds and the orientation of the acrylamide link that likely explains the jump in potency that resulted from fragment merging. Overall, comparing acrylamides 9 and 11, we observe in a 3.7‐fold increase in k inact/K i and a 4.3‐fold increase in REF, and the consistency between these two orthogonal metrics of covalent fragment potency is encouraging for future applications of qIT to covalent fragment optimization.
H. Intact-protein mass spectrometry
Protein-mass data were obtained on a Waters micromass LC-TOF mass spectrometer in positive ion mode using electrospray ionization. Samples were chromatographed using an Acquity UPLC protein BEH C4 column (2.1 mm × 50 mm, 2.7 µm) with a flow rate of 30 µL/min. The injection volume was 5 µL of protein solution (5 µM) in 30 mM ammonium bicarbonate buffer con-taining 0.5% formic acid and 20% MeOH. The gradient used was 100% mobile phase A (0.1% formic acid in water/MeOH (19:1)) ramping linearly to 90% mobile phase B (0.1% formic acid in MeOH) over 5 minutes. The spectra were acquired from 500 to 2500 Da and deconvolution was performed with MassLynx (Waters), using the maximum entropy algorithm, over a mass range of […] with a mass step of 0.75. […]
Cdk2(WT) or Cdk2(ES) (1 mg) was sequentially incubated with aliquots of CAK1 (3 × 0.05 mg) at r.t. for 4 hours at a time in 1.5 mL of a 30 mM Tris/HCl buffer (pH 7.5) containing 10 mM MgCl2, 10 mM ATP and 3 mM DTT. As CAK1 appeared to be-come rapidly inactivated in the presence of pCdk2, three repetitions were required to drive the reaction to completion. The resulting solution was incubated with 50 µL of glutathione-Sepharose beads and filtered to remove remaining CAK1.
Kinase assays were performed by coupling the conversion of ATP into ADP to the oxidation of NADH (Abs = 340 nm) into NAD+, mediated by lactate dehydrogenase (LDH) and pyruvate kinase (PK). WT, mutant or ligand-conjugated pCdk2 (12.5 or 50 nM) was preincubated with Cyclin A2 (20 nM) in a buffer containing 50 mM Tris/HCl, 10 mM MgCl2, 5 mM DTT, 1 mM phosphoenolpyruvate, 0.24 mM NADH, 10 U mL-1 LDH, 14 U mL-1 PK and 5% DMSO at 37 °C for 30 minutes. Reactions were initiated by addition of 0.5 mM ATP and 0.24 mM substrate peptide (PKTPKKAKKL) and the absorbance at 340 nm was moni-tored for two hours. Assays were conducted at 37 °C and carried out in clear 384-well plates (Nunc) using a SpectraMax i3x plate reader (Molecular Devices) with a final volume of 20 µL in each well. After plotting Abs 340 against time, enzyme velocity was measured from the gradient during the linear phase of product accumulation.
Q. Concentration dependent qIT
The rate of reaction (kobs) for the reaction between each acrylamide (25, 50, 125, 250 and 500 µM) with Cdk2(ES) (5 µM) was determined us qIT (see D. Rate Determination by qIT) in duplicate. The average kobs was plotted against acrylamide concen-tration and hyperbolic regression analysis performed using Prism 8.0 software (GraphPad) to derive kinact and Ki.

[2] = qIT: rate of reaction with glutathione (intrinsic reactivity); format: physicochemical; conditions: fragment 0.5 mM, glutathione 5 μM
Protocol: Previously we described a fluorescence‐based platform for screening cysteine‐targeting covalent fragments called quantitative irreversible tethering (qIT). ^[19] The method measures and compares the rate of reactions of individual fragments with the protein‐of‐interest (POI) and GSH (Figure 2a and b).
as §1, with “covSAR analysis. […]” for “covSAR analysis.”

[3] = acrylamide 11 compared with acrylamide 9

Row | SMILES | kinact/KI at 500 µM ([1]; fragment 0.5 mM) [M⁻¹ s⁻¹] | covalent SAR by REF-based qIT analysis [1] | further results
1 | C=CC(=O)N1CCCc2cc(C(N)=O)ccc21 [compound 4] |  | complete loss of activity | 
2 | C=CC(=O)N1CCN(C(C)=O)c2ccccc21 [compound 7] |  | loss of activity | 
3 | C=CC(=O)N1CCCc2cc(C(=O)O)ccc21 [compound 3] |  | complete loss of activity | 
4 | C#CCNC(=O)c1ccc2c(c1)CCCN2C(=O)C=C [compound 5] |  | well tolerated | 
5 | C=CC(=O)N1CCn2c1nc1ccccc12 [compound 2] | 0.68 |  | GSH: kobs/[I] [2]: 5.34 M⁻¹ s⁻¹

Continued, in another order:

Row | kinact/KI at 500 µM ([1]; fragment 0.5 mM) [M⁻¹ s⁻¹] | covalent SAR by REF-based qIT analysis [1] | SMILES | further results
6 | 8.48 |  | C=CC(=O)N1CCN(CC)c2cc(C(=O)OC)ccc21 [compound 9] | rate of reaction with Cdk2(ES) relative to acrylamide 1 ([1]; qIT): six times faster than acrylamide 1; rate enhancement factor (REF) ([1]; rate with Cdk2(ES) relative to rate with GSH, fragment 0.5 mM, thiol 5 μM): 182; kinact/KI (Cdk2(ES)): 4.76 M⁻¹ s⁻¹; Ki (Cdk2(ES)): 416 µM; kinact (Cdk2(ES)): 0.00198 s⁻¹
7 |  | tenfold loss in REF | C=CC(=O)N1CCc2cc(C(=O)OC)ccc21 [compound 8] | 
8 | 1.91 | less Cdk2(ES) selective | C=CC(=O)N1CCN(C)c2cc(C(=O)OC)ccc21 [compound 10] | 
9 | 19.5 | significant improvement in REF | C=CC(=O)N1CCN(CC2CC2)c2cc(C(=O)OC)ccc21 [compound 11] | fold increase in REF [1, 3]: 4.3 fold; fold increase in kinact/Ki (Cdk2(ES); [3]): 3.7 fold; kinact/KI (Cdk2(ES)): 17.7 M⁻¹ s⁻¹; Ki (Cdk2(ES)): 102 µM; kinact (Cdk2(ES)): 0.00181 s⁻¹
